Legend:
[1] = tested on: primary cerebellar neuron cultures; experiment: Membrane cholesterol content, primary cerebellar neuron cultures; format: cell-based, rat; settings: for membrane cholesterol content: 10 mM for 3 hours in Locke's buffer, control and ethanol-exposed cerebellar cultures
Description: In vitro experiments were used to examine the effects of ethanol on receptor binding and choline acetyltransferase (ChAT) and acetylcholinesterase (AChE) expression in cerebellar neurons. Primary neuronal cultures were generated with postnatal day 8 rat pup cerebellar tissue (Nikolic et al. Genes Dev. 10:816 (1996)). The cultures were maintained with Dulbecco's modified Eagle's medium (DMEM) supplemented with 5% fetal calf serum, 4 mM glutamine, 100 μM non-essential amino acid mixture (Gibco-BRL, Grand Island, N.Y.), 25 mM KCl, and 9 g/L glucose. Ethanol treatment was accomplished by placing the cultures (seeded in 6-well dishes or 96-well plates) in sealed chambers in which 50 mM ethanol was vaporized from a reservoir tray (de la Monte et al. Alcohol Clin. Exp. Res. 24:716 (2000); Banerjee et al. Alcohol Clin. Exp. Res. 22:2093 (1998)). Control cultures were identically treated but with water added to the reservoir tray. The chambers were flushed with gas containing 75% nitrogen, 20% oxygen, and 5% carbon dioxide. After 96 hours incubation at 37° C., the cells were harvested to measure insulin, IGF-I, and IGF-II receptor binding. […] To examine the effects of membrane cholesterol content on growth factor stimulated neuronal viability and function, identically treated 96-well cultures were stimulated with vehicle, 10 nM insulin, 10 nM IGF-I, or 25 nM IGF-II for 10 minutes and then analyzed for ATP content, or for 16 hours and then used to measure viability and ChAT or AChE immunoreactivity with the MICE assay (de la Monte et al., Biotechniques 26:1073 (1999)). ATP content was measured with the ATPLite assay (Packard, Meriden, Conn.). Viability was measured using the CyQuant assay (Molecular Probes, Eugene, Oreg.). Immunoreactivity was measured directly in the cultured wells using the microtiter immunocytochemical ELISA (MICE) assay (de la Monte et al., Biotechniques 26:1073 (1999)).

IGF-I receptor = experiment: Equilibrium binding assay, primary cerebellar neuron cultures; format: cell-based, rat
Description: Fresh frozen tissue (˜100 mg) was homogenized in 5 volumes of NP-40 lysis buffer (50 mM Tris-HCl, pH 7.5, 1% NP-40, 150 mM NaCl, 1 mM EDTA, 2 mM EGTA) containing protease inhibitors (1 mM PMSF, 0.1 mM TPCK, 1 μg/ml aprotinin, 1 μg/ml pepstatin A, 0.5 μg/ml leupeptin, 1 mM NaF, 1 mM Na4P2O7). Protein concentrations were determined using the bicinchoninic acid (BCA) assay (Pierce, Rockford, Ill.). Exploratory studies determined the amounts of protein and concentrations of radiolabeled ligand required to achieve 20% specific binding. Insulin receptor binding assays were performed using 100 μg protein. IGF-I binding assays required 25 μg protein per sample, and IGF-II receptor binding assays were optimized using 10 μg protein. Competitive equilibrium binding assays were used to assess growth factor binding in relation to ethanol exposure. For total binding, duplicate individual protein samples were incubated in 100 μl reactions containing binding buffer (100 mM HEPES, pH 8.0, 118 mM NaCl, 1.2 mM MgSO4, 8.8 mM dextrose, 5 mM KCl, 1% bovine serum albumin) and 100 nCi/ml of [^125I] (2000 Ci/mmol; […]) insulin, IGF-I, or IGF-II. To measure non-specific binding, replicate samples were identically prepared but with the addition of 0.1 μM unlabeled (cold) ligand.
All reactions were performed in 1.5 ml Eppendorff tubes, and the incubations were performed at 4° C. for 16 hours with gentle platform agitation. Bound radiolabeled tracer was then precipitated by adding 500 μl of 0.15% bovine gamma globulin (prepared in 100 mM Tris-HCl, pH 8.0) followed by 400 μl 37.5% polyethylene glycol 8000 (PEG-8000; prepared in 100 mM Tris-HCl, pH 8.0) to each tube. […] The samples were counted for 1 minute in an LKB CompuGamma CS Gamma counter. Specific binding was calculated by subtracting fmol of non-specific binding, i.e., amount bound in the presence of cold ligand, from the total fmol bound (absence of unlabeled competitive ligand). The results were analyzed and plotted using the GraphPad Prism 4 software (GraphPad Software, Inc., San Diego, Calif.). […]

Row | Molecule | membrane cholesterol content [1] | IGF-I receptor binding (IGF-I receptor; 10 mM for 3 hours, control cerebellar neurons) | cerebellar neuron membrane cholesterol content ([1]; in vitro exposure to 50 mM ethanol for 96 hours) | IGF-I receptor binding (IGF-I receptor; 50 mM ethanol for 96 hours vs control cultures) | IGF-I receptor binding (IGF-I receptor; 10 mM for 3 hours, control and ethanol-exposed cultures, relative to vehicle-treated cells)
1 | CC(C)CCC[C@@H](C)[C@H]1CC[C@H]2[C@@H]3CC=C4C[C@@H](O)CC[C@]4(C)[C@H]3CC[C@]12C [cholesterol] | significantly increased | significantly impaired | – | – | –
2 | CCO [ethanol] | – | – | significantly reduced | significantly reduced | –
3 | Methyl-β-cyclodextrin [MβCD] | significantly reduced | – | – | – | significantly inhibited

From patent US9308198B2, “Treatment, prevention, and reversal of alcohol-induced brain disease” (priority 2006, dated 2016)
